From patent publication US10202360B2 (CELGENE QUANTICEL RESEARCH, INC., priority 2016, dated 2019)

Target: CREBBP (Homo sapiens (Human), UniProt Q92793)
Experiment: In vitro enzyme inhibition assay - CREBBP inhibition (AlphaScreen, biotinylated H4-tetraacetyl peptide)
Assay type: binding
Details: Table 28; AlphaScreen, H4-tetraacetyl peptide
In short: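 His-tagged CREBBP expressed in E. coli (50 nM final) incubated with biotinylated H4K5/8/12/16(Ac) peptide (20 nM final) in HEPES pH 7.3 buffer, 0.4% DMSO, 20 min at room temperature.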

Chain of CREBBP (Q92793 1081-1197): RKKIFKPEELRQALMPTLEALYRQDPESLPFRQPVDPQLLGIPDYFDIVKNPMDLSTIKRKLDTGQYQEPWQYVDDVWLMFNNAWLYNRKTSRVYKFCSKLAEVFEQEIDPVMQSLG

IC50, < 500 nM:
COc1cccc(F)c1Oc1nc(NS(=O)(=O)C(C)C)cc(-c2ccc(=O)n(C)c2)n1 [Example 234, Propane-2-sulfonic acid [2-(2-fluoro-6-methoxy-phenoxy)-6-(1-methyl-6-oxo-1,6-dihydro-pyridin-3-yl)-pyrimidin-4-yl]-amide]
CCCS(=O)(=O)Nc1cc(-c2ccc(=O)n(C)c2)nc(Oc2c(F)cccc2OC)n1 [Example 235, Propane-1-sulfonic acid [2-(2-fluoro-6-methoxy-phenoxy)-6-(1-methyl-6-oxo-1,6-dihydro-pyridin-3-yl)-pyrimidin-4-yl]-amide]
CCS(=O)(=O)Nc1cc(-c2ccc(=O)n(C)c2)nc(OC(C)C)n1 [Example 236, Ethanesulfonic acid [2-isopropoxy-6-(1-methyl-6-oxo-1,6-dihydro-pyridin-3-yl)-pyrimidin-4-yl]-amide]
CCCS(=O)(=O)Nc1cc(-c2ccc(=O)n(C)c2)nc(OC(C)C)n1 [Example 237, Propane-1-sulfonic acid [2-isopropoxy-6-(1-methyl-6-oxo-1,6-dihydro-pyridin-3-yl)-pyrimidin-4-yl]-amide]
CCS(=O)(=O)Nc1cc(-c2ccc(=O)n(C)c2)nc(Oc2c(F)cccc2C2CC2)n1 [Example 238, Ethanesulfonic acid [2-(2-cyclopropyl-6-fluoro-phenoxy)-6-(1-methyl-6-oxo-1,6-dihydro-pyridin-3-yl)-pyrimidin-4-yl]-amide]
CCCS(=O)(=O)Nc1cc(-c2ccc(=O)n(C)c2)nc(Oc2c(F)cccc2C2CC2)n1 [Example 239, Propane-1-sulfonic acid [2-(2-cyclopropyl-6-fluoro-phenoxy)-6-(1-methyl-6-oxo-1,6-dihydro-pyridin-3-yl)-pyrimidin-4-yl]-amide]
CCCCS(=O)(=O)Nc1cc(-c2ccc(=O)n(C)c2)nc(Oc2c(F)cccc2C2CC2)n1 [Example 240, Butane-1-sulfonic acid [2-(2-cyclopropyl-6-fluoro-phenoxy)-6-(1-methyl-6-oxo-1,6-dihydro-pyridin-3-yl)-pyrimidin-4-yl]-amide]
CCCC(C)S(=O)(=O)Nc1cc(-c2ccc(=O)n(C)c2)nc(Oc2c(C)cccc2F)n1 (stereo not shown) [Example 241, Pentane-2-sulfonic acid [2-(2-fluoro-6-methyl-phenoxy)-6-(1-methyl-6-oxo-1,6-dihydro-pyridin-3-yl)-pyrimidin-4-yl]-amide]
CCCC(C)S(=O)(=O)Nc1cc(-c2ccc(=O)n(C)c2)nc(Oc2c(F)cccc2Cl)n1 (stereo not shown) [Example 242, Pentane-2-sulfonic acid [2-(2-chloro-6-fluoro-phenoxy)-6-(1-methyl-6-oxo-1,6-dihydro-pyridin-3-yl)-pyrimidin-4-yl]-amide]
CCCC(C)S(=O)(=O)Nc1cc(-c2ccc(=O)n(C)c2)nc(Oc2c(C)cccc2Cl)n1 (stereo not shown) [Example 243, Pentane-2-sulfonic acid [2-(2-chloro-6-methyl-pphenoxy)-6-(1-methyl-6-oxo-1,6-dihydro-pyridin-3-yl)-pyrimidin-4-yl]-amide]
CCCCS(=O)(=O)Nc1cc(-c2ccc(=O)n(C)c2)nc(OC2CCCCC2)n1 [Example 244, Butane-1-sulfonic acid [2-cyclohexyloxy-6-(1-methyl-6-oxo-1,6-dihydro-pyridin-3-yl)-pyrimidin-4-yl]-amide]
CCCS(=O)(=O)Nc1cc(-c2ccc(=O)n(C)c2)nc(OC2CCCCC2)n1 [Example 245, Propane-1-sulfonic acid [2-cylcohexyloxy-6-(1-methyl-6-oxo-1,6-dihydro-pyridin-3-yl)-pyrimidin-4-yl]-amide]
CCS(=O)(=O)Nc1cc(-c2ccc(=O)n(C)c2)nc(OC2CCCCC2)n1 [Example 246, Ethanesulfonic acid [2-cylcohexyloxy-6-(1-methyl-6-oxo-1,6-dihydro-pyridin-3-yl)-pyrimidin-4-yl]-amide]
